Counter-ions that a name gives are not always drawn.
System: human normal epidermal cells
Assay: Production of skin irritation mediators in human three-dimensional epidermal culture model (LabCyte EPI-MODEL), ELISA
Type: cell-based
Excerpt: There was used a human three-dimensional epidermal culture model in which human normal epidermal cells were multilayer-cultured (LabCyte EPI-MODEL, Japan Tissue Engineering Co., Ltd.). LabCyte is a cultured skin cultured in a transwell. For the experiment, LabCyte was used with the transwell.
A cholesterol (Wako Pure Chemical Industries, Ltd.) was used as a test article. Donepezil hydrochloride was used as the drug. Olive oil (Wako Pure Chemical Industries, Ltd.) was used as a vehicle.
Tests were conducted by the following group composition. • Drug Alone Group: A group with addition of 4×10^−4 M of donepezil hydrochloride alone dispersed in a vehicle, as a test solution. • Cholesterol Addition Group: A group with addition of 4×10^−4 M of donepezil hydrochloride and 1% by mass of cholesterol which were dispersed in a vehicle, as a test solution.
The test solutions of each group were added to the cells, the culture after being incubated for 48 hours were collected, and the production amounts of skin irritation mediators were measured. PGE2, IL-1α, IL-6 and IL-8 were measured as the skin irritation mediators. The skin irritation mediators were measured by using a commercially available ELISA kit (R&D Systems, Inc.). The relative production amount of the skin irritation mediator in the Cholesterol Addition Group was calculated as below, when the production amount of the skin irritation mediators in Drug Alone Group was set to 100.
Relative production amount=(production amount of the mediator in Cholesterol Addition Group)/(production amount of the mediator in Drug Alone Group)×100

[1] = 4×10^−4 M donepezil hydrochloride + 1% by mass cholesterol in olive oil, 48 hours incubation

Structure (SMILES) | relative production amount of skin irritation mediator IL-1α (drug alone group set to 100) [1] | relative production amount of skin irritation mediator IL-6 (drug alone group set to 100) [1] | relative production amount of skin irritation mediator IL-8 (drug alone group set to 100) [1] | relative production amount of skin irritation mediator PGE2 (drug alone group set to 100) [1] | effect on production amounts of skin irritation mediators by donepezil hydrochloride (1% by mass cholesterol added to 4×10^−4 M donepezil hydrochloride, 48 hours)
COc1cc2c(cc1OC)C(=O)C(CC1CCN(Cc3ccccc3)CC1)C2 (centres unmarked) [Donepezil hydrochloride, 2-[(1-benzyl-4-piperidinyl)methyl]-5,6-dimethoxyindane-1-on] | 0 | 85 | 59 | 33 | –
CC(C)CCC[C@@H](C)[C@H]1CC[C@H]2[C@@H]3CC=C4C[C@@H](O)CC[C@]4(C)[C@H]3CC[C@]12C [cholesterol, (3β)-cholest-5-en-3-olcholest-5-en-3β-ol] | – | – | – | – | effects of decreasing the production amounts of skin irritation mediators

— patent US20130053358A1, “TRANSDERMALLY ABSORBABLE DONEPEZIL-CONTAINING PREPARATION” (HISAMITSU PHARMACEUTICAL CO., INC., priority 2010, published 2013)
